Test results taken from patent US9169251B2, “Pyrrolopyridine derivatives and their use as CRTH2 antagonists” (Novartis AG, priority 2004, dated 2015).
pKi: −log10 of the molar value.

Biological target: T1, CRTh2 receptor (Homo sapiens, UniProt Q9Y5Y4)
T1 construct: expressed in transfected cells; host or cells: CHO.K1 (Chinese Hamster Ovary) cells, line CHO.K1-CRTh2
T1 sequence (Q9Y5Y4 1-395): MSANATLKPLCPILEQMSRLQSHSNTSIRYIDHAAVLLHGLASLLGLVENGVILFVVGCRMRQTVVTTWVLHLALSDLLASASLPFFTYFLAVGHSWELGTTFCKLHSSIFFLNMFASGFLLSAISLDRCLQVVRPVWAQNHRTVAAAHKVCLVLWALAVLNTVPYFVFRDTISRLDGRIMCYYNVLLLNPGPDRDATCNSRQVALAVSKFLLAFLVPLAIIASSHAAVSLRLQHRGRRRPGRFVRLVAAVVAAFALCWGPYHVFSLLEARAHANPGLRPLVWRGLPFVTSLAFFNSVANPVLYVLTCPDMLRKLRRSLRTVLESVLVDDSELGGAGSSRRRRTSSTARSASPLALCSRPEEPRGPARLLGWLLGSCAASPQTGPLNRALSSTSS
Assay: Filtration binding assay: competition with [3H]-PGD2 on CHO.K1-CRTh2 membranes (called SPA binding assay)
Conditions: [3H]-PGD2 2.5 nM
Procedure: Filtration Binding Assay Protocol
The binding of CRTh2 antagonists is determined using membranes prepared from human CRTh2-expressing Chinese Hamster Ovary cells (CHO.K1-CRTh2). To produce cell membranes CHO.K1-CRTh2 cells cultured in roller bottles are harvested using cell dissociation buffer (Invitrogen). The cells are pelleted by centrifugation (167 g, 5 min). […] At 4° C. cells are homogenized using a Polytron® (IKA Ultra Turrax T25) for 5 bursts of 1 second.
The binding of [^3H]-PGD2 (157 Ci/mmol) to CHO.K1-CRTh2 membranes is determined in the absence (total binding) and presence (non-specific binding) of unlabelled PGD2 (1 μM). Subtraction of the cpm (counts per minute) of [^3H]-PGD2 binding in presence of excess unlabelled PGD2 from that observed in the absence of excess unlabelled PGD2 is defined as specific binding. […]
The plates are incubated at room temperature on a shaker for 1 hour, and then harvested (Tomtec Harvester 9600) onto GF/C filter plates using wash buffer (10 mM HEPES-KOH, pH 7.4). […] Plates are then counted using a Packard Top Count instrument, Plates are then read on the Packard Topcount with the 3H Scintillation program (1 min per well). […]
Ki values are determined using Sigma Plot™ software, using the Cheng-Prussoff equation. […]

For `Cc1c(CC(=O)O)c2cccnc2n1Cc1ccc(S(C)(=O)=O)cc1C(F)(F)F` [Example 95, [1-(4-Methanesulfonyl-2-trifluoromethyl-benzyl)-2-methyl-1H-pyrrolo[2,3-b]pyridin-3-yl]-acetic acid], the pKi was 8.40.
